Laboratory results published in article PMC3427755 (Organic & biomolecular chemistry, 2012).

How the values were obtained:
B-Raf^WT = B-Raf^WT (Homo sapiens, UniProt P15056); experiment: In vitro B-Raf kinase assay; type: biochemical
[1] = tested on: A375 (B-Raf^V600E) malignant melanoma cells; experiment: Anti-proliferation activity, A375 melanoma cells; type: cell-based, human; conditions: for inhibition at 10 µM: Homo sapiens, A-375, read-out: Tumor growth inhibition rate A375(B-Raf^V600E); for Tumor growth inhibition rate A375(B-Raf^V600E): [I]=10μM
[2] = tested on: 1205Lu (B-Raf^V600E bearing) melanoma cells; experiment: Melanoma proliferation assay; type: cell-based, human; conditions: dose-dependent, 72 h, Figure 3
[3] = tested on: WM983B (B-Raf^V600E bearing) melanoma cells; experiment: Melanoma proliferation assay; type: cell-based, human; conditions: dose-dependent, 72 h, Figure 3
[4] = tested on: WM3918 melanoma cells not expressing mutant B-Raf; experiment: Melanoma proliferation assay; type: cell-based, human; conditions: dose-dependent, 72 h, Figure 3
[5] = tested on: normal human primary fibroblasts (FF2508); experiment: Proliferation assay; type: cell-based; conditions: dose-dependent, 72 h, Figure 3
SRC = SRC (Homo sapiens, UniProt P12931); experiment: Kinase profiling, SRC; type: biochemical; conditions: read-out: Inhibition rate (%) SRC
LCK = LCK (Homo sapiens, UniProt P06239); experiment: Kinase profiling, LCK; type: biochemical; conditions: read-out: Inhibition rate (%) LCK
KDR = KDR (Homo sapiens, UniProt P35968); experiment: Kinase profiling, KDR; type: biochemical; conditions: read-out: Inhibition rate (%) KDR
P38α = P38α (Homo sapiens, UniProt Q16539); experiment: Kinase profiling, P38α; type: biochemical; conditions: read-out: Inhibition rate (%) P38α
CDK2 = CDK2 (Homo sapiens, UniProt P24941); experiment: Kinase profiling, CDK2; type: biochemical; conditions: read-out: Inhibition rate (%) CDK2
ERK1 = ERK1 (Homo sapiens, UniProt P27361); experiment: Kinase profiling, ERK1; type: biochemical; conditions: read-out: Inhibition rate (%) ERK1
IGF1R = IGF1R (Homo sapiens, UniProt P08069); experiment: Kinase profiling, IGF1R; type: biochemical; conditions: read-out: Inhibition rate (%) IGF1R
IKKβ = target: T1, IKKβ (Homo sapiens, UniProt O14920); experiment: Kinase profiling, IKKβ; type: biochemical; conditions: for inhibition at 1 µM / inhibition at 5 µM: read-out: Inhibition rate (%) IKKβ
T1 sequence (O14920 1-756): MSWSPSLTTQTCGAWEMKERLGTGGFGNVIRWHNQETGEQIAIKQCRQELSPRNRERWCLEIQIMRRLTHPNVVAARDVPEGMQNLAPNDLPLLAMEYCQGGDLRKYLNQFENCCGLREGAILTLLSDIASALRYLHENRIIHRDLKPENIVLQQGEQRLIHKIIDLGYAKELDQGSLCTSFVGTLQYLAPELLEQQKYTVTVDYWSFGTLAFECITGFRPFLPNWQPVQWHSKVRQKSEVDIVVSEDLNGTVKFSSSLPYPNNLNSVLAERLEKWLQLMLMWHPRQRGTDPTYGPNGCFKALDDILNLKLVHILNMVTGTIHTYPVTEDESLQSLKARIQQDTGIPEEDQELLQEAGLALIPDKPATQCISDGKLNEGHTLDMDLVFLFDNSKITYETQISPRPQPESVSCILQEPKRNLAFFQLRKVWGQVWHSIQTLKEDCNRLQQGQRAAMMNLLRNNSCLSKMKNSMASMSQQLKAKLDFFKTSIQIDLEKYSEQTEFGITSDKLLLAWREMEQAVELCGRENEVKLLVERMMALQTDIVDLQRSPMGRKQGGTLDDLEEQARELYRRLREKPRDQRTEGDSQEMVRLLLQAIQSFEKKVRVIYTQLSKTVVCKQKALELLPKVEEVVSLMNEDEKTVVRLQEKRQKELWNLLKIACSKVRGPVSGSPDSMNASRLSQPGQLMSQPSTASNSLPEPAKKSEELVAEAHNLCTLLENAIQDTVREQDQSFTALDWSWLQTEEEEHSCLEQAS

PKCα = PKCα (Homo sapiens, UniProt P17252); experiment: Kinase profiling, PKCα; type: biochemical; conditions: read-out: Inhibition rate (%) PKCα
PDGFRα = PDGFRα (Homo sapiens, UniProt P16234); experiment: Kinase profiling, PDGFRα; type: biochemical; conditions: read-out: Inhibition rate (%) PDGFRα
EGFR = EGFR (Homo sapiens, UniProt P00533); experiment: Kinase profiling, EGFR; type: biochemical; conditions: read-out: Inhibition rate (%) EGFR
FGFR1 = FGFR1 (Homo sapiens, UniProt P11362); experiment: Kinase profiling, FGFR1; type: biochemical; conditions: for inhibition at 1 µM / inhibition at 5 µM: read-out: Inhibition rate (%) FGFR1
AKT1 = AKT1 (Homo sapiens, UniProt P31749); experiment: Kinase profiling, AKT1; type: biochemical; conditions: read-out: Inhibition rate (%) AKT1
MET = MET (Homo sapiens, UniProt P08581); experiment: Kinase profiling, MET; type: biochemical; conditions: read-out: Inhibition rate (%) MET
cKIT = cKIT (Homo sapiens, UniProt P10721); experiment: Kinase profiling, cKIT; type: biochemical; conditions: read-out: Inhibition rate (%) cKIT
B-Raf^V600E = B-Raf^V600E (Homo sapiens, UniProt P15056, V600E); experiment: In vitro B-Raf kinase assay; type: biochemical; conditions: panel of 16 protein kinases
[6] = tested on: SW620 (B-Raf^WT) human colonic carcinoma cells; experiment: Anti-proliferation activity, SW620 cells; type: cell-based; conditions: SW-620, read-out: Tumor growth inhibition rate SW620 (B-Raf)
[7] = tested on: patients harboring the B-Raf^V600E mutation; conditions: cited from earlier work

SRC, sequence (P12931 whole entry, species assumed): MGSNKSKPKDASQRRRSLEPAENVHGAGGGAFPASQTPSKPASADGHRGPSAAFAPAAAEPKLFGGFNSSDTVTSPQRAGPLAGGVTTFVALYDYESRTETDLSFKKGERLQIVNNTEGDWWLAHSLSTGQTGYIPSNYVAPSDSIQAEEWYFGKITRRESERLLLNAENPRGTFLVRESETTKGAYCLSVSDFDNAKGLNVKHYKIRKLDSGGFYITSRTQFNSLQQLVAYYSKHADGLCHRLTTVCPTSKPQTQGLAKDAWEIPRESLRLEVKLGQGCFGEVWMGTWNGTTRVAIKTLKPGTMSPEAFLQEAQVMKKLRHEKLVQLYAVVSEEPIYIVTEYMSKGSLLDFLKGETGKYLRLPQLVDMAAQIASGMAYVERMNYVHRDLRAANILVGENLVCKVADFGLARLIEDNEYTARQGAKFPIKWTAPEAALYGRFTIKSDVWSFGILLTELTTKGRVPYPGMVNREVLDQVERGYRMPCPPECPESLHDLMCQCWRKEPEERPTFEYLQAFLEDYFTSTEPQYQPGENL
cKIT, sequence (P10721 26-976): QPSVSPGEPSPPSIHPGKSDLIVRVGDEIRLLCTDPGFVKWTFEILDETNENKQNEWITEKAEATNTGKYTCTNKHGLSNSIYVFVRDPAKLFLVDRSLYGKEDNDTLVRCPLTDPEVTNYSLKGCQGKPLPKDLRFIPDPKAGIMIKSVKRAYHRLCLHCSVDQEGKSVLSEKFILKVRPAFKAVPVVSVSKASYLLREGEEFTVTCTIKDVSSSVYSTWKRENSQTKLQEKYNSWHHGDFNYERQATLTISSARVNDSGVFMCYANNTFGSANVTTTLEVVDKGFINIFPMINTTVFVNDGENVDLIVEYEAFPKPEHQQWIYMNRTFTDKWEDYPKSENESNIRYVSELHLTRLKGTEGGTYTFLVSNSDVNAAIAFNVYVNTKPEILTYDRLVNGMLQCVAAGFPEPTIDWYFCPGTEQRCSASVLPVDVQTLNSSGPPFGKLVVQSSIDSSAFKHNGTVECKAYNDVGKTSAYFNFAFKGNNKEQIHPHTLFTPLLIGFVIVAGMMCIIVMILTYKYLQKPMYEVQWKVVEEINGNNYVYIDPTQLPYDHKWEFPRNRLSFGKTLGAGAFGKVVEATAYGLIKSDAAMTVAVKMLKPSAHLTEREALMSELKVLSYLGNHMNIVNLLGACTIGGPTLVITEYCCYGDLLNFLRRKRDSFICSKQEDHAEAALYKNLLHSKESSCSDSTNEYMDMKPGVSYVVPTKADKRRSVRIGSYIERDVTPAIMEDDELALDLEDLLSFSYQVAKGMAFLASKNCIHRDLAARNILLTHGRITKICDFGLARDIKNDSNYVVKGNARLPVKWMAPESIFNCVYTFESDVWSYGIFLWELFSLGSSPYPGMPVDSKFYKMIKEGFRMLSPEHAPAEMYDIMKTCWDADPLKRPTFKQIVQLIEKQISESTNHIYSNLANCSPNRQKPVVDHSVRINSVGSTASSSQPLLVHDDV
LCK, sequence (P06239 whole entry, species assumed): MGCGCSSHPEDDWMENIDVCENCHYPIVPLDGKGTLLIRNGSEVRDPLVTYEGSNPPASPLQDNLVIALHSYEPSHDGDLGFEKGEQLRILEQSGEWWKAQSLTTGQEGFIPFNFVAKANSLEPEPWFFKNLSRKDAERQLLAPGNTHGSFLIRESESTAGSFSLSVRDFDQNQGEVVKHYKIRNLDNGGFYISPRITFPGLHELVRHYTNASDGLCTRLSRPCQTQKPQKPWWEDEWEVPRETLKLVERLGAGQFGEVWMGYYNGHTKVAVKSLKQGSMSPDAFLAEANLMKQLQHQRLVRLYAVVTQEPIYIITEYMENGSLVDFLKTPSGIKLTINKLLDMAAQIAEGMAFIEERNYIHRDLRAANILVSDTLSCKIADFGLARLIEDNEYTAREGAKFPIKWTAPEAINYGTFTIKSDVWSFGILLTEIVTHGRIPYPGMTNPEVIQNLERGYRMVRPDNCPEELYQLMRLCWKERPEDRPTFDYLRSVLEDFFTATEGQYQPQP
AKT1, sequence (P31749 whole entry, species assumed): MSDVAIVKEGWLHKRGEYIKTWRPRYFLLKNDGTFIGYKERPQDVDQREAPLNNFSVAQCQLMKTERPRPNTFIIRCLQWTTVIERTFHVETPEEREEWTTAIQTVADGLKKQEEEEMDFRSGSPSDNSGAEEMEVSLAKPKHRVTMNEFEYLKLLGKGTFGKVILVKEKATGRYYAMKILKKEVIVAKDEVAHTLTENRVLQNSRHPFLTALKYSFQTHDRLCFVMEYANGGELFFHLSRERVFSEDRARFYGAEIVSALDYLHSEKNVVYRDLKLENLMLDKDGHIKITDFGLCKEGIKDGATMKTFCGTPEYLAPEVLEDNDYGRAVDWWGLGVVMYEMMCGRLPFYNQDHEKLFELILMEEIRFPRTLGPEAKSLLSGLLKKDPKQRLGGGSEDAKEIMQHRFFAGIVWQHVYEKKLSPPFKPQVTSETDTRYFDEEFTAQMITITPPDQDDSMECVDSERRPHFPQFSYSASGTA
FGFR1, sequence (P11362 22-822, species assumed): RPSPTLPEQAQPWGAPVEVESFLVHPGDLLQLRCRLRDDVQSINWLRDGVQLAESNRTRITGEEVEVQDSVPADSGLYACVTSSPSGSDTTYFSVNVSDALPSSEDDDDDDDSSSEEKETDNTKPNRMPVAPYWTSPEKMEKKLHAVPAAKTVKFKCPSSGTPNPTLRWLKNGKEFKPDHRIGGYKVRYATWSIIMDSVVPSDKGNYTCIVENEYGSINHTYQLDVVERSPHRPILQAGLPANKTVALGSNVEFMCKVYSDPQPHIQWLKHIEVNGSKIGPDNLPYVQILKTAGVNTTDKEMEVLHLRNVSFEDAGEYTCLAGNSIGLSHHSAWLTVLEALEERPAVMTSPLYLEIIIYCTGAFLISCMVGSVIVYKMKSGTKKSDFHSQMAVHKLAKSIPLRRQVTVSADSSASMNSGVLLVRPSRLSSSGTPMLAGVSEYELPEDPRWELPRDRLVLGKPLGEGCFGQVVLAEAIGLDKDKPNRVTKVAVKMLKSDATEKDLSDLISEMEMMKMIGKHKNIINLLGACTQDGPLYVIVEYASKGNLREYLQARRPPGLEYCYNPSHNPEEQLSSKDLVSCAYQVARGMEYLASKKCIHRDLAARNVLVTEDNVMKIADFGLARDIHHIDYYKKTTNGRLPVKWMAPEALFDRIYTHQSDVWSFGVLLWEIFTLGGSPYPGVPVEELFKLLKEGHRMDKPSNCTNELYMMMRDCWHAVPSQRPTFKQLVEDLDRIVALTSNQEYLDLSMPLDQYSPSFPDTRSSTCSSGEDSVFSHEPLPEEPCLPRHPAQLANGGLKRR
EGFR, sequence (P00533 25-1210, species assumed): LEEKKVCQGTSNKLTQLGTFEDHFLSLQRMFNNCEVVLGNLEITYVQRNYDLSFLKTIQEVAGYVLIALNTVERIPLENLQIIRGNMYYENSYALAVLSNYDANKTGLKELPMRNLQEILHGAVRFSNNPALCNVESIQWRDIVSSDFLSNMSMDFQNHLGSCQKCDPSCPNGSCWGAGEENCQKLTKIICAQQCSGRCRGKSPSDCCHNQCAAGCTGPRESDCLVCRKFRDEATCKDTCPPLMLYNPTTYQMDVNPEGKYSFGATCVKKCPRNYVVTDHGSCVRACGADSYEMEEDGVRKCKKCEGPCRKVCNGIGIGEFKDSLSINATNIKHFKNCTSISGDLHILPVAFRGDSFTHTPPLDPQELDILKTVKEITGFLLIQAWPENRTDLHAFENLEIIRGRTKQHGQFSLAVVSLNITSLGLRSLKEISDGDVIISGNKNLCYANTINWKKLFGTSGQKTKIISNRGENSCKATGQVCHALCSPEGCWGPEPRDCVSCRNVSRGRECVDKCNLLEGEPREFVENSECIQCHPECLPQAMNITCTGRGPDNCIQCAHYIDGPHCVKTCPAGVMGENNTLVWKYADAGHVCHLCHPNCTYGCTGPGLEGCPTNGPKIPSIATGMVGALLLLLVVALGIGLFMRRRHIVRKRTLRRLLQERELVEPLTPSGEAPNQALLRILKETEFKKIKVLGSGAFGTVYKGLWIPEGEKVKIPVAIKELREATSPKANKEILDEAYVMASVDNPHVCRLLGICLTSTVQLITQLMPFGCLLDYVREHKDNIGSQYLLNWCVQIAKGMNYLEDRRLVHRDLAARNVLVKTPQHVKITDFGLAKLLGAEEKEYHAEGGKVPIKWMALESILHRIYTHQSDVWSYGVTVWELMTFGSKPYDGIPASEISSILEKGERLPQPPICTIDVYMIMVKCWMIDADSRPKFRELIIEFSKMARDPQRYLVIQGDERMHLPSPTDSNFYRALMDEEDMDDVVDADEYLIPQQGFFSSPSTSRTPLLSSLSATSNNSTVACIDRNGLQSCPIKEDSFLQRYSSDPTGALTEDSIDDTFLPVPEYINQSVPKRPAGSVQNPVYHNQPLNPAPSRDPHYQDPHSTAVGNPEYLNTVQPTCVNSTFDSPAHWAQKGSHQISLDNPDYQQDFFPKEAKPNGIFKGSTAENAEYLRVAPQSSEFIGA
ERK1, sequence (P27361 whole entry, species assumed): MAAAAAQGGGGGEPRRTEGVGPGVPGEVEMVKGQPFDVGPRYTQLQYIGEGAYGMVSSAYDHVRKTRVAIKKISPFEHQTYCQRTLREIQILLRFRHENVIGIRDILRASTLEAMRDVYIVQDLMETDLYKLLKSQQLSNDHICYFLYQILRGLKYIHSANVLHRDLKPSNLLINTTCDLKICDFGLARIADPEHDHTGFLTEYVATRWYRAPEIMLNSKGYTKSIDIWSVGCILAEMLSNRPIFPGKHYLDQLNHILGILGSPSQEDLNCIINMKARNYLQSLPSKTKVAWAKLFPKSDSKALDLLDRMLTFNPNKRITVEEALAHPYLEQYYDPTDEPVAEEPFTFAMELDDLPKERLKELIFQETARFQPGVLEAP

Compound | inhibition at 10 µM [1] [%] | Tumor growth inhibition rate A375(B-Raf^V600E) [1] | proliferation of 1205Lu cells [2] | proliferation of WM983B cells [3] | proliferation of WM3918 cells [4] | proliferation of FF2508 fibroblasts [5] | inhibition at 1 µM (SRC) [%] | inhibition at 5 µM (SRC) [%] | inhibition at 5 µM (LCK) [%] | inhibition at 5 µM (KDR) [%] | inhibition at 1 µM (CDK2) [%] | inhibition at 5 µM (CDK2) [%] | inhibition at 1 µM (ERK1) [%] | inhibition at 5 µM (ERK1) [%] | inhibition at 1 µM (IGF1R) [%] | inhibition at 5 µM (IGF1R) [%] | inhibition at 1 µM (IKKβ) [%] | inhibition at 5 µM (IKKβ) [%] | inhibition at 5 µM (PKCα) [%] | inhibition at 1 µM (PDGFRα) [%] | further results
O=C1NC(=S)NC(=O)C1=Cc1ccc(-c2ccc(Br)cc2)o1 [Compound 22f, 5-[5-(4-bromo-phenyl)-furan-2ylmethylene]-2-thioxo-dihydro-pyrimidine-4,6-dione] | 65.3 | potent growth inhibition activity | significantly inhibited | significantly inhibited | significantly more resistant | significantly more resistant | 8.6 | 28.3 | 10.5 | 6.1 | 11.6 | 39.7 | 14.5 | 30.7 | 9.5 | 15.6 | 27.8 | 52.1 | 26.4 | 7.2 | IC50 (B-Raf^WT): 600 nM; inhibition at 1 µM (LCK): 10.5%; inhibition at 1 µM (KDR): 3.9%; inhibition at 5 µM (P38α): 7.7%; Inhibition rate (%) IKKβ (IKKβ; 5μM, ATP at Km): significantly inhibited; inhibition at 1 µM (PKCα): 16.2%; inhibition at 5 µM (PDGFRα): 20.4%; inhibition at 1 µM (EGFR): 12.6%; inhibition at 5 µM (EGFR): 46.1%; Inhibition rate (%) FGFR1 (FGFR1; 5μM, ATP at Km): significantly inhibited; inhibition at 1 µM (FGFR1): 15%; inhibition at 5 µM (FGFR1): 72.2%; inhibition at 1 µM (AKT1): 10.8%; inhibition at 5 µM (AKT1): 20.3%; inhibition at 1 µM (MET): 34.2%; inhibition at 5 µM (MET): 42.2%; inhibition at 1 µM (cKIT): 18.6%; inhibition at 5 µM (cKIT): 40.3%
O=C1NC(=S)NC(=O)C1=Cc1ccc(-c2ccc3c(c2)OCO3)o1 [Compound 22q, 5-[5-(3,4-methylenedioxy)-furan-2ylmethylene]-2-thioxo-dihydro-pyrimidine-4,6-dione] | 77.7 | potent growth inhibition activity | significantly inhibited | significantly inhibited | significantly more resistant | significantly more resistant | 6.2 | 15.2 | 0.8 | 1.2 | 3.3 | 12.6 | 10 | 13.7 | 5.6 | 6.8 | 15 | 35.7 | 5.2 | 6 | selectivity for B-Raf^V600E over other tested protein kinases (B-Raf^V600E): more than 10 fold; inhibition at 10 µM [6]: 47.7%; inhibition at 5 µM (PDGFRα): 7.7%; inhibition at 5 µM (EGFR): 19.4%; inhibition at 1 µM (FGFR1): 4.9%; inhibition at 5 µM (FGFR1): 18.6%; inhibition at 1 µM (AKT1): 4.6%; inhibition at 5 µM (AKT1): 14.5%; inhibition at 1 µM (MET): 18.6%; inhibition at 5 µM (MET): 19.4%; inhibition at 1 µM (cKIT): 18.3%; inhibition at 5 µM (cKIT): 20%
CCCS(=O)(=O)Nc1ccc(F)c(C(=O)c2c[nH]c3ncc(-c4ccc(Cl)cc4)cc23)c1F [Vemurafenib] |  |  |  |  |  |  |  |  |  |  |  |  |  |  |  |  |  |  |  |  | side effects in treated patients ([7]; Vemurafenib treated patients): induction of keratoacanthoma was frequently observed; tumor regression in patients ([7]; patients harboring the B-Raf^V600E mutation): complete or partial tumor regression in the majority of patients
